According to publication PMC9217908, “Screening of commonly prescribed drugs for effects on the CAT1-mediated transport of L-arginine and arginine derivatives” (Amino Acids, 2022):
Like-named read-outs stand apart in the source and are kept apart here.

Experiments:
[1] = target: T1, CAT1 (cationic amino acid transporter 1, CAT1/SLC7A1) (Homo sapiens, UniProt P30825); experiment: inhibition of [3H]-L-arginine uptake in HEK-CAT1 cells, Lineweaver-Burk; type: cell-based; conditions: substrate L-arginine; competitive
T1 construct: full-length human transporter stably transfected in HEK cells (HEK-CAT1); net uptake against HEK-VC vector control cells

[2] = target: T1, CAT1 (cationic amino acid transporter 1, CAT1/SLC7A1); experiment: cell-based; parameters: species or system HEK-CAT1 (HEK293 stably transfected); Inhibition of net CAT1-mediated [3H]-ADMA (1 uM) uptake, 2.5 min, scintillation counting, vector control subtracted; conditions: HEK293, ADMA 1 uM as substrate; for inhibition at 200 µM: read-out: % Inhibition of ADMA uptake at 200 µM; for inhibition at 20 µM: read-out: % Inhibition of ADMA uptake at 20 µM
How it was run: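 HEK cells expressing CAT1 and vector-control cells took up [^3H]-L-arginine for 5 min, or [^3H]-L-homoarginine or [^3H]-ADMA (1 μM) for 2.5 min, with or without drug at 20 or 200 µM. Net CAT1 uptake was CAT1 cells minus control cells, and inhibition (%) = 100 − V/V0×100. Negative values mean stimulation; n = 6–9.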

[3] = target: T1, CAT1 (cationic amino acid transporter 1, CAT1/SLC7A1); experiment: cell-based; parameters: species or system HEK-CAT1 (HEK293 stably transfected); Inhibition of net CAT1-mediated [3H]-L-arginine (100 uM) uptake, 5 min, scintillation counting, vector control subtracted; conditions: HEK293, L-arginine 100 uM as substrate; for inhibition at 20 µM: read-out: % Inhibition of L-arginine uptake at 20 µM; for inhibition at 200 µM: read-out: % Inhibition of L-arginine uptake at 200 µM
How it was run: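 HEK-CAT1 and vector-control HEK-VC cells took up [3H]-L-arginine (100 μM) for 5 min, with or without drug at 20 or 200 µM; [3H]-L-homoarginine or [3H]-ADMA uptake ran 2.5 min. Net uptake is CAT1 minus VC cells, and inhibition (%) = 100 − (V/V0 × 100). Negative values mean stimulated uptake.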

[4] = target: T1, CAT1 (cationic amino acid transporter 1, CAT1/SLC7A1); experiment: cell-based; parameters: species or system HEK-CAT1 (HEK293 stably transfected); Inhibition of net CAT1-mediated [3H]-L-homoarginine (1 uM) uptake, 2.5 min, scintillation counting, vector control subtracted; conditions: HEK293, L-homoarginine 1 uM as substrate; for inhibition at 200 µM: read-out: % Inhibition of L-homoarginine uptake at 200 µM
How it was run: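 HEK-CAT1 cells with HEK-VC vector controls; [3H]-L-homoarginine (1 μM) uptake over 2.5 min with or without test compound at 20 µM or 200 µM. Net CAT1 uptake (CAT1 minus VC) gives inhibition (%) = 100 – (V/V0 × 100). Negative values mean stimulated uptake; n = 6–9 from at least two independent experiments.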

[5] = target: T1, CAT1 (cationic amino acid transporter 1, CAT1/SLC7A1); experiment: inhibition of [3H]-L-homoarginine uptake in HEK-CAT1 cells; type: cell-based; conditions: read-out: % inhibition at 20 μM
[6] = target: T1, CAT1 (cationic amino acid transporter 1, CAT1/SLC7A1); experiment: inhibition of [3H]-L-arginine uptake in HEK-CAT1 cells; type: cell-based
Excerpt: inhibition of [3H]-L-arginine uptake in HEK-CAT1 cells on CAT1 (cationic amino acid transporter 1, CAT1/SLC7A1) | verapamil inhibited CAT1-mediated uptake of L-arginine, L-homoarginine, and ADMA with IC50 values

T1 sequence (P30825 whole entry): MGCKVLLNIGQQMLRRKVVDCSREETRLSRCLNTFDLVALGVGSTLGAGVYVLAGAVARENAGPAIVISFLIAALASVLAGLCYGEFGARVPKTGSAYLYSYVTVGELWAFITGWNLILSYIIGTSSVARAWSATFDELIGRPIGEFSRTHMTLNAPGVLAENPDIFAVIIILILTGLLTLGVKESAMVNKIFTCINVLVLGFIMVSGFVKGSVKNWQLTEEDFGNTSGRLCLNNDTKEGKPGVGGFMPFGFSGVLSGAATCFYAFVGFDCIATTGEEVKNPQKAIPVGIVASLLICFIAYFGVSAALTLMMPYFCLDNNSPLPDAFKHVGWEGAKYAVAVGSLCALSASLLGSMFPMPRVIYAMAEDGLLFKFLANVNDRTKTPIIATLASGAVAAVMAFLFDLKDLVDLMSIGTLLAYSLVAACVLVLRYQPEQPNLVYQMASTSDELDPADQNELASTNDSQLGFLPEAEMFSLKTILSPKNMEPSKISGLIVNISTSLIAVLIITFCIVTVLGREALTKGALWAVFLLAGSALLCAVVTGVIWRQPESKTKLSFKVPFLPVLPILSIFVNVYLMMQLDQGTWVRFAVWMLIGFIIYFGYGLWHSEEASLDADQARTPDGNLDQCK

| SMILES | inhibition of [3H]-L-arginine uptake in HEK-CAT1 cells, Lineweaver-Burk [1] | inhibition at 200 µM [2] [%] | inhibition at 20 µM [3] [%] | inhibition at 200 µM [3] [%] | inhibition at 200 µM [4] [%] | inhibition at 20 µM [2] [%] | inhibition at 20 µM ([4]; read-out: % Inhibition of L-homoarginine uptake at 20 µM) [%] | inhibition at 20 µM [5] [%] | IC50 [6] [µM] |
| --- | --- | --- | --- | --- | --- | --- | --- | --- | --- |
| CN(C)C(=N)NCCC[C@H](N)C(=O)O [ADMA] | competitive inhibition pattern for L-homoarginine and ADMA |  |  |  |  |  |  |  |  |
| N=C(N)NCCCC[C@H](N)C(=O)O [L-homoarginine] | competitive inhibition pattern for L-homoarginine and ADMA |  |  |  |  |  |  |  |  |
| O=C(O[C@H]1C[C@H]2CC[C@@H](C1)[N+]21CCCC1)C(O)(c1ccccc1)c1ccccc1 [Trospium Chloride] |  | 3 ± 9.1 | 27.1 ± 2.1 | -23.8 ± 4.5 | -22.5 ± 2.3 |  |  |  |  |
| CCCC(CCC)C(=O)O [Valproic acid] |  | -47.5 ± 6 | 12.6 ± 2.5 | -3.1 ± 6.1 | -9.5 ± 5.1 | -7.6 ± 4 | 10.2 ± 1.4 |  |  |
| COc1cc2nc(N3CCN(C(=O)c4ccco4)CC3)nc(N)c2cc1OC [prazosin] |  | 5.1 ± 2.3 | 9.8 ± 4.3 | 9.9 ± 3.1 | 9.7 ± 6.1 | 36.9 ± 4.1 |  | 38.2 |  |
| O=C(OC1C[C@H]2CC[C@@H](C1)[N+]21CCCC1)C(O)(c1ccccc1)c1ccccc1 (stereo partly drawn) [trospium] |  |  |  |  |  |  |  | 28.6 |  |
| COc1ccc(CCN(C)CCCC(C#N)(c2ccc(OC)c(OC)c2)C(C)C)cc1OC (stereo not drawn) [verapamil] |  | 44.2 ± 4.4 | 29.3 ± 1.1 | 27.5 ± 3.7 |  | 24.1 ± 2.3 |  |  | 85.3 |
